{"source": "paper PMC3877555", "about": "(Cell Death & Disease, 2013)", "target": "HRas-GTP (Homo sapiens, UniProt P01112)", "sequence (P01112 1-186)": "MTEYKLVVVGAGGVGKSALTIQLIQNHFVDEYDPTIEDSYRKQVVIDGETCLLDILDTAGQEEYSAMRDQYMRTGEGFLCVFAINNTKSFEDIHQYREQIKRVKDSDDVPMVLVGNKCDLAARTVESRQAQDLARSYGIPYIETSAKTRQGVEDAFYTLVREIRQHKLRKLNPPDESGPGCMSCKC", "assay": "SPR", "assay_type": "binding"}
{"smiles": "C[C@@]12C3=CC(=O)OCC3=C[C@H]3OC(=O)[C@](C)([C@H]31)[C@@H](O)[C@H]1O[C@H]12", "note": "[WA, Wentilactone A]", "values": [{"measurement": "Kd", "value": 15.7, "unit": "µM"}]}
